34 molecules from PubChem BioAssay AID2581 (Johns Hopkins Ion Channel Center, 2010) can be followed below.

Molecules are shown by their SMILES. Active and inactive are the calls of the source.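 The calls were made as follows: active = any inhibition of Kir2.1 potassium channel current, measured at -100 mV, at any tested dose; inactive = no inhibition seen at any dose.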

This assay concerns the target Inward rectifier potassium channel 2 (Mus musculus) (UniProt P35561). Briefly: mouse Kir2.1 channel blockers, dose response, orthogonal assay for Kir2.1 inhibitor project, cell-based, automated electrophysiology, IonWorks patch clamp (AID 2581). The following applies: Kir2.1 cell line, IonWorks patch clamp current at -100 mV; for channel activity, lower = inhibition: at 30 µM (top of the series).

Sequence of Inward rectifier potassium channel 2 (Mus musculus) (P35561 whole entry, looked up): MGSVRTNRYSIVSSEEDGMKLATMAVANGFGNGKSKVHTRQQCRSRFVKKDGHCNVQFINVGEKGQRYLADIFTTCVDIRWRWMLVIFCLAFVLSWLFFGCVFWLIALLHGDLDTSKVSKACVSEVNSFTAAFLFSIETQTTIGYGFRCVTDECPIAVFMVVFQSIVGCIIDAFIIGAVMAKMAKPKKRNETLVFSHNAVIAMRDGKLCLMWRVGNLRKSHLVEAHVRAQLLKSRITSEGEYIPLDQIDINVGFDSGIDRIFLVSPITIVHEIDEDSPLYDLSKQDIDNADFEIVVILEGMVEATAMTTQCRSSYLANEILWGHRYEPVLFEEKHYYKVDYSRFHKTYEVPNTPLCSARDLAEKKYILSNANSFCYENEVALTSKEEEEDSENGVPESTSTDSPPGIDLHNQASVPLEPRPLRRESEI

The term IC50 denotes the concentration that inhibits the measured activity by half. Regarding `COc1ccc(CNCc2cccc3ccccc23)cc1OC`, the IC50 is 23 µM. In the case of `COc1cc(CN(C)Cc2cccc3ccccc23)c([N+](=O)[O-])cc1OC`, the “channel activity, lower = inhibition” value is “inactive”. Consider `COc1ccc(CNCc2ccc(OC)c(Cl)c2)cc1`, for which the half-inhibitory concentration (IC50) was 5.11 µM.

As to `COc1ccc(CNCc2ccccc2C)cc1`, the IC50 is 16.8 µM. The same measure, in the same setting: then `COc1ccc(CNC2CCCc3ccccc32)cc1` (centres undefined), with 9.05 µM. Still for that read-out and setting: then `COc1ccc(CNCc2ccc(C(C)(C)C)cc2)cc1`, with 14 µM.

With `Clc1ccc(CNCc2cccc3ccccc23)c(Cl)c1`, the “channel activity, lower = inhibition” value is “inactive”.

With `COc1ccc(CNCc2ccccn2)cc1`, the “channel activity, lower = inhibition” value was “inactive”. On to `COc1cc(Br)c(CN(C)Cc2cccc3ccccc23)cc1OC`, for which the “channel activity, lower = inhibition” value is “inactive”. For the molecule `COc1ccc(CNCc2cccc3ccccc23)c(OC)c1`, the IC50 was 28.2 µM. Same read-out and setting: then `COc1ccc(CNCc2ccc(Cl)cc2)cc1`, with 11.5 µM. `COc1cccc(CNCc2cccc3ccccc23)c1`: the IC50 is 23.6 µM. On to `COc1ccc(CNCc2ccc(OC(F)(F)F)cc2)cc1`, for which the IC50 was 24.1 µM. Still for that read-out and setting: the same measure for `COc1ccc(CNCc2ccc(OC)c3ccccc23)cc1`: 20.6 µM. As to `CC(C)(C)c1ccc(CNCc2cccc3ccccc23)cc1`, the “channel activity, lower = inhibition” value was “inactive”. Still for that read-out and setting: then `Clc1cccc(CNCc2cccc3ccccc23)c1`, with “inactive”.

With `COc1ccc(COCc2cccc3ccccc23)cc1`, the “channel activity, lower = inhibition” value was “inactive”.

On to `COc1ccc(CNCc2cccc(Cl)c2)cc1`, for which the IC50 was 8.99 µM. On to `COc1ccc(CNCc2ccncc2)cc1`, for which the “channel activity, lower = inhibition” value is “inactive”. Turning to `COc1ccc(CNCc2ccc(OC)cc2)cc1`, the IC50 was 13.3 µM. Turning to `COc1ccc(CNC(C)c2cccc3ccccc23)cc1` (centres undefined), the “channel activity, lower = inhibition” value was “inactive”. For the molecule `COc1ccc(CNCc2ccc3ccccc3c2)cc1`, the 50% inhibitory concentration (IC50) is 9.76 µM.

On to `COc1ccc(CNC(=O)c2cccc3ccccc23)cc1`, for which the “channel activity, lower = inhibition” value was “inactive”. Regarding `COc1ccc(CNCc2ccc(C)cc2)cc1`, the IC50 was 8.01 µM. For `COc1ccc(CNCc2cccnc2)cc1`, the “channel activity, lower = inhibition” value was “inactive”. The same measure, in the same setting: the same measure for `FC(F)(F)Oc1ccc(CNCc2cccc3ccccc23)cc1`: “inactive”; for `COc1ccc(C(C)NCc2cccc3ccccc23)cc1` (centres undefined): “inactive”. In the case of `Fc1cccc(CNCc2cccc3ccccc23)c1F`, the “channel activity, lower = inhibition” value was “inactive”.

Consider `COc1ccc(CNCc2ccc(OC)c3ccccc23)cc1OC`, for which the IC50 was 23.5 µM. Take `Clc1ccc(CNCc2cccc3ccccc23)cc1`: the “channel activity, lower = inhibition” value is “inactive”. Same read-out and setting: then `COc1ccc(CNCc2ccccc2)cc1`, with “inactive”.

`COc1ccc(C(=O)NCc2cccc3ccccc23)cc1`: the “channel activity, lower = inhibition” value is “inactive”. Regarding `COc1ccccc1CNCc1cccc2ccccc12`, the IC50 was 18.1 µM. As to `COc1cc(CN(C)Cc2cccc3ccccc23)ccc1OCc1ccccc1`, the “channel activity, lower = inhibition” value is “inactive”.
